± gives the expanded uncertainty stated by the source.
Columns and labels:
[1] = 298.15 K, 101.33 kPa, Liquid; for speed of sound: Sing-around technique in a fixed-path interferometer; for mass density: Vibrating tube method
[2] = excess molar enthalpy (molar enthalpy of mixing); xn = mol fraction of the nth substance listed; conditions: 298.15 K, 101 kPa, Liquid, Calvet calorimetry

CCn1cc[n+](C)c1.F[B-](F)(F)F [1-ethyl-3-methylimidazolium tetrafluoroborate]
[1]
Conditions	mass density [kg/m3]	speed of sound [m/s]
–	1279.91 ± 1.5	1619.4 ± 2.4

CCn1cc[n+](C)c1.F[B-](F)(F)F [1-ethyl-3-methylimidazolium tetrafluoroborate] + O
[2]
Conditions	excess molar enthalpy [kcal/mol]
x1 = 0.1136	0.0374 ± 0.0186
x1 = 0.1678	0.0537 ± 0.0263
x1 = 0.2249	0.0693 ± 0.0335
x1 = 0.2734	0.0812 ± 0.0406
x1 = 0.331	0.0934 ± 0.0478
x1 = 0.3615	0.0989 ± 0.0502
x1 = 0.4325	0.109 ± 0.055
x1 = 0.4709	0.112 ± 0.0574
x1 = 0.5314	0.115 ± 0.0574
x1 = 0.5722	0.115 ± 0.0574
x1 = 0.6291	0.113 ± 0.0574
x1 = 0.6685	0.109 ± 0.055
x1 = 0.7311	0.0986 ± 0.0502
x1 = 0.771	0.0898 ± 0.0454
x1 = 0.8324	0.0724 ± 0.0359
x1 = 0.8694	0.0596 ± 0.0287
x1 = 0.9103	0.0434 ± 0.0217
x1 = 0.9311	0.0343 ± 0.0172

O=C1CCCN1 [2-pyrrolidinone]
[1]
Conditions	mass density [kg/m3]	speed of sound [m/s]
–	1107.15 ± 0.23	1633.9 ± 1.5

O=C1CCCN1 [2-pyrrolidinone] + O
[2]
Conditions	excess molar enthalpy [kcal/mol]
x1 = 0.1013	-0.0589 ± 0.0287
x1 = 0.136	-0.0776 ± 0.0382
x1 = 0.1745	-0.0978 ± 0.0478
x1 = 0.2319	-0.125 ± 0.0621
x1 = 0.2775	-0.145 ± 0.0717
x1 = 0.3351	-0.166 ± 0.0837
x1 = 0.3813	-0.18 ± 0.0908
x1 = 0.4343	-0.193 ± 0.0956
x1 = 0.4783	-0.2 ± 0.1
x1 = 0.5401	-0.205 ± 0.103
x1 = 0.5713	-0.206 ± 0.103
x1 = 0.6264	-0.201 ± 0.1
x1 = 0.6771	-0.192 ± 0.0956
x1 = 0.7314	-0.177 ± 0.0884
x1 = 0.7693	-0.162 ± 0.0813
x1 = 0.8326	-0.13 ± 0.0645
x1 = 0.8951	-0.0899 ± 0.0454
x1 = 0.9204	-0.0708 ± 0.0359

O=C1CCCN1 [2-pyrrolidinone] + c1ccncc1
[2]
Conditions	excess molar enthalpy [kcal/mol]
x1 = 0.1213	0.0217 ± 0.0108
x1 = 0.1715	0.029 ± 0.0146
x1 = 0.2336	0.0366 ± 0.0182
x1 = 0.2615	0.0394 ± 0.0198
x1 = 0.3255	0.0446 ± 0.0222
x1 = 0.3701	0.0471 ± 0.0237
x1 = 0.4291	0.0489 ± 0.0239
x1 = 0.4711	0.0493 ± 0.0239
x1 = 0.5256	0.0485 ± 0.0239
x1 = 0.5713	0.0469 ± 0.0234
x1 = 0.6364	0.0431 ± 0.0215
x1 = 0.6716	0.0404 ± 0.0203
x1 = 0.7315	0.0348 ± 0.0174
x1 = 0.7619	0.0315 ± 0.0158
x1 = 0.8311	0.0232 ± 0.0117
x1 = 0.8751	0.0174 ± 0.0086
x1 = 0.9204	0.0112 ± 0.00574
x1 = 0.9344	0.00927 ± 0.00454

CN1CCCC1=O [N-methylpyrrolidone]
[1]
Conditions	mass density [kg/m3]	speed of sound [m/s]
–	1028.23 ± 0.25	1546 ± 1.6

c1ccncc1 [pyridine]
[1]
Conditions	mass density [kg/m3]	speed of sound [m/s]
–	978.252 ± 0.2	1417.8 ± 1.5

c1ccncc1 [pyridine] + CN1CCCC1=O
[2]
Conditions	excess molar enthalpy [kcal/mol]
x2 = 0.0911	-0.0363 ± 0.0182
x2 = 0.1426	-0.052 ± 0.0263
x2 = 0.1985	-0.0669 ± 0.0335
x2 = 0.2312	-0.0755 ± 0.0382
x2 = 0.2854	-0.086 ± 0.043
x2 = 0.312	-0.0903 ± 0.0454
x2 = 0.3789	-0.097 ± 0.0478
x2 = 0.443	-0.103 ± 0.0526
x2 = 0.4995	-0.104 ± 0.0526
x2 = 0.5478	-0.102 ± 0.0502
x2 = 0.5851	-0.1 ± 0.0502
x2 = 0.6359	-0.0959 ± 0.0478
x2 = 0.6982	-0.0895 ± 0.0454
x2 = 0.725	-0.0852 ± 0.043
x2 = 0.7732	-0.0742 ± 0.0382
x2 = 0.8489	-0.0552 ± 0.0287
x2 = 0.8923	-0.0427 ± 0.0213
x2 = 0.9156	-0.0345 ± 0.0172
